Experimental data reported in US20240140947A1, “COMPOUND FOR THE TREATMENT OF CANCER” (priority 2022, published 2024).

What was measured:
CDK2/Cyclin E1 = target: T1, CDK2/Cyclin E1 (Homo sapiens, UniProt P24941); assay: CDK2/Cyclin E1 mobility shift assay; type: biochemical; conditions: geometric mean, 150 μM ATP
T1 construct: Wild-type full length CDK2/wild-type full length Cyclin E1 enzyme complex was produced in-house
Experimental: (CPC Scientific, Sunnyvale, CA). The mobility shift assay electrophoretically separates the fluorescently labeled peptides (substrate and phosphorylated product) following the kinase reaction. Both substrate and product are measured, and the ratio of these values is used to generate % conversion of substrate to product by the LabChip EZ Reader. […] The assay was initiated with the addition of ATP, following a fifteen minutes pre-incubation of enzyme and inhibitor at room temperature in the reaction mixture. The reaction was stopped after 45 minutes at room temperature by the addition of 50 μL of 80 mM EDTA, pH 7.5. The Ki value was determined from the fit of the data to the Morrison tight-binding competitive inhibition equation with the enzyme concentration as a variable.

CDK4/Cyclin D1 = target: T2, CDK4/Cyclin D1 (Homo sapiens, UniProt P11802); assay: CDK4/Cyclin D1 mobility shift assay; type: biochemical; conditions: geometric mean, 3.5 mM ATP
T2 construct: 2007 E1/2008+PO4
T2 sequence (P11802 whole entry): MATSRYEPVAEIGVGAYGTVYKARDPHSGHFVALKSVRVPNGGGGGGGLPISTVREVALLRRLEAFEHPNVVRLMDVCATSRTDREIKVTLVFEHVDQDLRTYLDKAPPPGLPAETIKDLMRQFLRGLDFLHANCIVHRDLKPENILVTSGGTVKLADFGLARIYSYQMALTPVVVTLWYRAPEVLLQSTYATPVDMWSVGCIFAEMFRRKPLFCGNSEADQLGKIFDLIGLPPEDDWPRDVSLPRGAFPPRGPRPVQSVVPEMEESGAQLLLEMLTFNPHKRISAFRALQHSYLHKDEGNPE
T2 sequence (P24385 whole entry partner): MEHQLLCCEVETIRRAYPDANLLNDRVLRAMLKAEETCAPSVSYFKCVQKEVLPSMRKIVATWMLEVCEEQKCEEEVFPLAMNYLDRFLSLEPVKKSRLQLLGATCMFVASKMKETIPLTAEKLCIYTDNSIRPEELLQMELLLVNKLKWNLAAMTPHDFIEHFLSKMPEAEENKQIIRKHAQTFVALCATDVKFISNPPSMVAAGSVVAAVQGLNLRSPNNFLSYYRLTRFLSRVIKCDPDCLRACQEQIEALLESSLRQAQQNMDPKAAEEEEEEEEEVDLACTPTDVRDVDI
Experimental: (§1) The mobility shift assay electrophoretically separates the fluorescently labeled peptides (substrate and phosphorylated product) following the kinase reaction. Both substrate and product are measured and the ratio of these values is used to generate % Conversion of substrate to product by the LabChip EZ Reader.
K, determinations were made from a plot of the fractional velocity as a function of inhibitor concentration fit to the Morrison equation with the enzyme concentration as a variable.

CDK6/Cyclin D3 = target: T3, CDK6/Cyclin D3 (Homo sapiens, UniProt Q00534); assay: CDK6/Cyclin D3 mobility shift assay; type: biochemical; conditions: geometric mean, 3.5 mM ATP
T3 construct: LJIC-2009G1/2010+PO4
T3 sequence (Q00534 whole entry): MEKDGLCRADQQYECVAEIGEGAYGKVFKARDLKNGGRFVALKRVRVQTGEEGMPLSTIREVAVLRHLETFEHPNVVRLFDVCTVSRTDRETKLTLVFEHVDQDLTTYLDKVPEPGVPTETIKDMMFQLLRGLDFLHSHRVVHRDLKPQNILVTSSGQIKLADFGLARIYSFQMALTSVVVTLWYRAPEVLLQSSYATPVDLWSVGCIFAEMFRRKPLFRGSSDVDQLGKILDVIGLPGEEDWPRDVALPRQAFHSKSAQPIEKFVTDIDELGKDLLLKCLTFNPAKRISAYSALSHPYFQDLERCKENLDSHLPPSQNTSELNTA
T3 sequence (P30281 whole entry partner): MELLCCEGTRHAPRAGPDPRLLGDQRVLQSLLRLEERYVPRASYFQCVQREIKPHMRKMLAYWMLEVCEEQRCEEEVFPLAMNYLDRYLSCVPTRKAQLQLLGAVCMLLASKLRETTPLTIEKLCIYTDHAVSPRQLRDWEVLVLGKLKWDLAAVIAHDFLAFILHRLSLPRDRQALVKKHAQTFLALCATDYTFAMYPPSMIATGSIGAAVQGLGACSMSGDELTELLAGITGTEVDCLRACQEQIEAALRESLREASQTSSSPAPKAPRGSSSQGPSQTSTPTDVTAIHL
Experimental: as §1, with “measured,” for “measured”, “conversion” for “Conversion”
The reaction was stopped after 95 minutes by the addition of 50 μL of 30 mM EDTA. Ki determinations were made from a plot of the fractional velocity as a function of inhibitor concentration fit to the Morrison equation with the enzyme concentration as a variable.
For CDK4 and CDK6 mobility shift assays, see also Morrison, J. F. (1969) Kinetics of the reversible inhibition of enzyme-catalysed reactions by tight-binding inhibitors, Biochimica et biophysica acta 185, 269-286; and Murphy, D. J. (2004) Determination of accurate KI values for tight-binding enzyme inhibitors: an in silico study of experimental error and assay design, Analytical biochemistry 327, 61-67.

[1] = tested on: MCF7, T47D, and HCC1428 parental ER+ breast cancer cell lines; assay: Cell proliferation assay, parental ER+ breast cancer cell lines (range over lines); type: cell-based; conditions: Homo sapiens, read-out: anti-proliferation IC50 values, range over cell lines
Experimental: (§2) OVCAR3, MCF7, T47D, HCC1428, NCIH2087, NCIH358 or A549cells were seeded 1-3000 cells/well in 96-well plates in growth media containing 10% FBS and cultured overnight at 37° C. 5% CO2. The following day, compounds were serially diluted from a 10 mM top dose for an 11-point 3-fold dilution curve in DMSO. Compound 1 and PF-06873600 were intermediately diluted 1:200 into growth media prior to diluting 1:5 on cells for final concentration 10 μM to 0.1 nM in 0.1% DMSO on cells. Cells were incubated at 37° C. 5% CO2 for 7 days. CYQUANT Direct Cell Proliferation Assay (Molecular Probes, Eugene, OR) was then performed following manufacturer recommendations to determine the relative viable cell numbers on the Perkin Elmer Envision 2104 Multi Label Reader at 508 nm excitation and 527 nm emission wavelengths. IC50 values were calculated by concentration-response curve fitting utilizing a four-parameter analytical method using GraphPad Prism software.
(§3) The effect of Compound 1 on cell proliferation was assessed in multiple ER+ breast cancer cell lines, including parental and palbociclib resistant cell lines.
(§4) Similar results were shown with NCIH2087, NCIH358, and A549 NSCLC cell lines ([…].4).

[2] = tested on: palbociclib resistant (PalboR) derivatives of MCF7, T47D, and HCC1428; assay: Cell proliferation assay, palbociclib resistant derivatives (range over lines); type: cell-based; conditions: Homo sapiens, read-out: anti-proliferation IC50 values, range over cell lines
Experimental: as §2, §3, §4

[3] = Human blood-to-plasma partition ratio (BPR); type: in vitro ADME; design: dose or concentration left out as unconfirmed; conditions: fresh whole blood, 37° C.
Experimental: Compound 1 has been evaluated according to methods well known in the art, for its ability to partition between human plasma and blood. Based on the observed partitioning and plasma protein binding, the blood binding was estimated based on human blood unbound fraction (fub)=human plasma unbound fraction (fup)/human blood-to-plasma partition ratio (BPR). […] At the end of the incubations, blood and plasma samples were matrix-matched and analyzed by LC-MS/MS. BPR was calculated by dividing the blood and plasma measure peak areas.

[4] = Rat i.v. pharmacokinetic study; type: in vivo
Experimental: Rat PK studies were done at Pfizer (Groton, CT) or BioDuro Pharmaceutical Product Development Inc. (Shanghai, PRC); Jugular vein-cannulated male Wistar-Hannover rats were purchased from Charles River Laboratories, Inc. (Wilmington, MA) or Vital River (Beijing, China) and were typically 7-10 weeks of age at the time of dosing. During the pharmacokinetic studies all animals were housed individually. Access to food and water was provided ad libitum. Compounds were administered i.v. via the tail vein (n=2 or 3), dosed as a 1 mg/ml solution using standard compatible excipients at 1 mL/kg for a resulting dose of […]. Serial blood samples were collected via the jugular vein cannula at predetermined timepoints after dosing. Animals were monitored for pain or distress throughout the study, with at least daily monitoring during normal husbandry prior to study start. At the completion of the study, animals were euthanized by overdose of inhaled anesthesia followed by exsanguination. […] Plasma samples from the animal PK studies were processed using protein precipitation with acetonitrile: methanol (1:1) containing internal standard verapamil followed by quantitation by LC-MS/MS against a standard curve prepared in blank plasma. Pharmacokinetic parameters were calculated using noncompartmental analysis (Watson v.7.5, Thermo Scientific).

[5] = Preliminary assessment of metabolism (hepatocytes, human liver microsomes, plasma after oral dosing); type: in vitro ADME, rat, rabbit; conditions: hepatocytes of six species, plasma from monkey, dog and mouse
Experimental: A preliminary assessment of the metabolism of Compound 1 was conducted using mouse, rat, rabbit, dog, monkey and human hepatocytes; human liver microsomes; plasma from monkey, dog and mouse studies following oral dosing. The primary metabolic pathway of Compound 1 was oxidation.

Observed human half-life = type: in vivo

Row | Compound | Ki (CDK2/Cyclin E1) | Ki (CDK4/Cyclin D1) | Ki (CDK6/Cyclin D3) | IC50 [1] | IC50 [2] | blood plasma ratio at 1 h [3] | Rat Vdss unbound: (Rat plasma Vdss/rat plasma fu) [4] | Vd ([4]; rat, plasma, iv, 2 mg/kg, male Wistar-Hannover rats, read-out: Rat Vdss) | primary metabolic pathway [5] | observed human t1/2 (Observed human half-life) | half-life (Observed human half-life; in vivo, read-out: observed human t1/2 (converted))
1 | C[C@@]1(O)CCC[C@H]1n1c(=O)c(CC(F)F)cc2cnc(NC3CCN(S(N)(=O)=O)CC3)nc21 [Compound 1, 4-({6-(2,2-difluoroethyl)-8-[(1R,2R)-2-hydroxy-2-methylcyclopentyl]-7-oxo-7,8-dihydropyrido[2,3-d]pyrimidin-2-yl}amino)piperidine-1-sulfonamide] | 0.08 nM | 0.79 nM | 3.1 nM | 14.3 to 17.6 nM | 37.3 to 65.7 nM | 79 | 10.8 L/kg | 1.5 L/kg | oxidation | – | –
2 | C[C@@]1(O)CCC[C@H]1n1c(=O)c(C(F)F)cc2cnc(NC3CCN(S(C)(=O)=O)CC3)nc21 [Compound 2, reference compound] | – | – | – | – | – | – | – | – | – | ~3 h | 3 h
